From patent publication US9198422B2, “Pesticidal pyrazole compounds” (BASF SE, priority 2011, dated 2015) come the findings set out here.

Format in all cases: in vivo
One assay concerns Dichromothrips corbetti. Nature of the assay: B.8 Orchid thrips petal dip test. The note with it: 72 h, after 72 hours, read-out: mortality in comparison with untreated controls. The protocol: B.8 Orchid Thrips (Dichromothrips corbetti)
The active compounds were formulated as a 1:1 (vol:vol) water:aceton solution. Surfactant (Alkamuls EL 620) was added at the rate of 0.1% (vol/vol). Vanda orchids petals were cleaned, washed and air dried prior to spraying. Petals were dipped into the test solution for 3 seconds, air dried, placed inside a resealable plastic and inoculated with 20 adults. The treated petals were kept inside the holding room at 28-29° C. and relative humidity of 50-60%. Percent mortality was recorded after 72 hours.

A further assay concerns Bemisia argentifolii. Kind of assay: B.3 Silverleaf whitefly, adult, spray test on cotton plants. The following applies: for mortality at 1 ppm / mortality at 100 ppm / mortality at 3 ppm: read-out: % mortality in comparison to untreated controls; for mortality at 10 ppm: 72 h, 3 days after treatment, read-out: mortality in comparison with untreated controls. The procedure: B.3 Silverleaf Whitefly (Bemisia argentifolii, Adult)
(§1) The active compounds were formulated in cyclohexanone as a 10,000 ppm solution supplied in 1.3 ml ABgene® tubes. These tubes were inserted into an automated electrostatic sprayer equipped with an atomizing nozzle and they served as stock solutions for which lower dilutions were made in 1:1 (vol:vol) water:aceton. A nonionic surfactant (Kinetic®) was included in the solution at a volume of 0.01% (v/v).
Cotton plants at the cotyledon stage (one plant per pot) were sprayed by an automated electrostatic plant sprayer equipped with an atomizing spray nozzle. The plants were dried in the sprayer fume hood and then removed from the sprayer. Each pot was placed into a plastic cup and 10 to 12 whitefly adults (approximately 3-5 days old) were introduced. The insects were collected using an aspirator and 0.6 cm, nontoxic Tygon® tubing (R-3603) connected to a barrier pipette tip. The tip, containing the collected insects, was then gently inserted into the soil containing the treated plant, allowing insects to crawl out of the tip to reach the foliage for feeding. Cups were covered with a reusable screened lid (150-micron mesh polyester screen PeCap from Tetko, Inc.). Test plants were maintained in a growth room at 25° C. and 20-40% relative humidity for 3 days, avoiding direct exposure to fluorescent light (24 hour photoperiod) to prevent trapping of heat inside the cup. Mortality was assessed 3 days after treatment, compared to untreated control plants.

The subject of the next assay is Myzus persicae. Kind of assay: B.5 Green peach aphid spray test on bell pepper plants. The following applies: for mortality at 10 ppm: 120 h, after 5 days, read-out: mortality in comparison with untreated controls; for mortality at 0.1 ppm: read-out: % mortality in comparison to untreated controls. The procedure: B.5 Green Peach Aphid (Myzus persicae)
as §1
Bell pepper plants at the first true-leaf stage were infested prior to treatment by placing heavily infested leaves from the main colony on top of the treatment plants. Aphids were allowed to transfer overnight to accomplish an infestation of 30-50 aphids per plant and the host leaves were removed. The infested plants were then sprayed by an automated electrostatic plant sprayer equipped with an atomizing spray nozzle. The plants were dried in the sprayer fume hood, removed, and then maintained in a growth room under fluorescent lighting in a 24 hour photoperiod at 25° C. and 20-40% relative humidity. Aphid mortality on the treated plants, relative to mortality on untreated control plants, was determined after 5 days.

For a further assay, the system named is Aphis gossypii. Nature of the assay: B.2 Cotton aphid, mixed life stages, spray test on cotton plants. The note with it: for mortality at 10 ppm: 120 h, after 5 days, read-out: mortality in comparison with untreated controls; for mortality at 0.1 ppm / mortality at 3 ppm: read-out: % mortality in comparison to untreated controls. The protocol: B.2 Cotton Aphid (Aphis gossypii, Mixed Life Stages)
as §1
Cotton plants at the cotyledon stage were infested with aphids prior to treatment by placing a heavily infested leaf from the main aphid colony on top of each cotyledon. Aphids were allowed to transfer overnight to accomplish an infestation of 80-100 aphids per plant and the host leaf was removed. The infested plants were then sprayed by an automated electrostatic plant sprayer equipped with an atomizing spray nozzle. The plants were dried in the sprayer fume hood, removed from the sprayer, and then maintained in a growth room under fluorescent lighting in a 24-hr photoperiod at 25° C. and 20-40% relative humidity. Aphid mortality on the treated plants, relative to mortality on untreated control plants, was determined after 5 days.

The subject of the next assay is Aphis craccivora. Kind of assay: B.1 Cowpea aphid spray test on potted cowpea plants. The note with it: for mortality at 500 ppm: population reduction assessed after 24, 72 and 120 hours, read-out: mortality in comparison with untreated controls; for mortality at 0.3 ppm: read-out: % mortality in comparison to untreated controls. The protocol: If not otherwise specified the test solutions were prepared as follows:
The active compound was dissolved at the desired concentration in a mixture of 1:1 (vol:vol) distilled water:aceton. The test solution was prepared at the day of use and in general at concentrations of ppm (wt/vol).
B.1 Cowpea Aphid (Aphis craccivora)
Potted cowpea plants colonized with 100-150 aphids of various stages were sprayed after the pest population had been recorded. Population reduction was assessed after 24, 72, and 120 hours.

The next assay deals with Megoura viciae. Nature of the assay: B.4 Vetch aphid bean leaf disk microtiter test. The following applies: foliar, 144 h, 6 days, read-out: mortality in comparison with untreated controls. The procedure: B.4 Vetch Aphid (Megoura viciae)
The active compounds were formulated in 3:1 (vol:vol) water:DMSO with different concentrations of formulated compounds.
Bean leaf disks were placed into microtiterplates filled with 0.8% agar-agar and 2.5 ppm OPUS™. The leaf disks were sprayed with 2.5 μl of the test solution and 5 to 8 adult aphids were placed into the microtiter plates which were then closed and kept at 23±1° C. and 50±5% relative humidity under fluorescent light for 6 days. Mortality was assessed on the basis of vital, reproduced aphids. Aphid mortality and fecundity was then visually assessed.

The subject of the next assay is Anthonomus grandis. Kind of assay: B.6 Boll weevil insect diet microtiter test. The note with it: 120 h, egg and larval mortality, 5 days, read-out: mortality in comparison with untreated controls. The procedure:
B.6 Boll Weevil (Anthonomus grandis)
The compounds were formulated in 3:1 (vol:vol) water:DMSO.
For evaluating control of boll weevil (Anthonomus grandis) the test unit consisted of 24-well-microtiter plates containing an insect diet and 20-30 A. grandis eggs. Different concentrations of formulated compounds were sprayed onto the insect diet at 20 μl, using a custom built micro atomizer, at two replications. After application, the microtiter plates were incubated at 23±1° C. and 50±5% relative humidity for 5 days. Egg and larval mortality was then visually assessed.

The subject of a further assay is Nephotettix virescens. Nature of the assay: B.9 Rice green leafhopper spray test on rice seedlings. The note with it: 72 h, after 72 hours, read-out: mortality in comparison with untreated controls. The procedure:
B.9 Rice Green Leafhopper (Nephotettix virescens)
Rice seedlings were cleaned and washed 24 hours before spraying. The active compounds were formulated in 1:1 (vol:vol) water:aceton, and 0.1% vol/vol surfactant (EL 620) was added. Potted rice seedlings were sprayed with 5 ml test solution, air dried, placed in cages and inoculated with 10 adults. Treated rice plants were kept at 28-29° C. and relative humidity of 50-60%. Percent mortality was recorded after 72 hours.

The next assay relates to Plutella xylostella. Kind of assay: B.10 Diamondback moth cabbage leaf disk dip test. The following applies: 500 ppm; 72 h. The procedure: B.10 Diamondback Moth (Plutella xylostella)
The active compounds were formulated in 1:1 (vol:vol) water:aceton and 0.1% (vol/vol) Alkamuls EL 620 surfactant. A 6 cm leaf disk of cabbage leaves was dipped in the test solution for 3 seconds and allowed to air dry in a Petri plate lined with moist filter paper. The leaf disk was inoculated with 10 third instar larvae and kept at 25-27° C. and 50-60% humidity for 3 days. Mortality was assessed after 72 h of treatment.

Consider `CCN(C(=O)c1cnn(C(C)C2(C#N)CC2)c1C)c1ccnnc1` (centres unmarked) [I-198], for which the mortality at 500 ppm in the assay with Dichromothrips corbetti and with Aphis craccivora was at least 75% each time. Also, the mortality at 1 ppm with Bemisia argentifolii turned out to be 100%. Besides, the mortality at 10 ppm with Bemisia argentifolii, in the assay with Myzus persicae and in the assay on Aphis gossypii was at least 75% throughout.

`Cc1c(C(=O)N(C)c2cccnc2)cnn1C(C)C(F)(F)F` (centres unmarked) [I-377]: the mortality at 100 ppm in the assay with Bemisia argentifolii was found to be 100%. Moreover, the mortality at 10 ppm in the assay with Bemisia argentifolii and in the assay with Aphis gossypii was at least 75% throughout. For the same molecule, the mortality at 2500 ppm in the assay with Megoura viciae and in the assay with Anthonomus grandis was at least 75% each time. For the same molecule, the mortality at 500 ppm with Aphis craccivora is at least 75%.

`CCN(C(=O)c1cnn(CC(C)C)c1C)c1ccnnc1` [#175 in WO10/034737, reference compound]: the mortality at 0.1 ppm in the assay on Myzus persicae and with Aphis gossypii was 0% each time. Further, the mortality at 0.3 ppm with Aphis craccivora amounted to 0%.

Regarding `Cc1c(C(=O)Nc2ccnnc2)cnn1C(C)(C)C` [#7 of Table 14 in WO10/034737, reference compound], the mortality at 3 ppm in the assay with Aphis gossypii was 25%. In the assay with Aphis craccivora, the mortality at 0.3 ppm was found to be 0%.

Turning to `CCn1ncc(C(=O)N(C)c2cccnc2)c1C` [#180 in WO09/0027393, reference compound], the mortality at 100 ppm with Bemisia argentifolii stood at 0%.

With `Cc1c(C(=O)Nc2ccnnc2)cnn1C(C)(C)C#N` [I-32], the mortality at 500 ppm in the assay on Nephotettix virescens and in the assay with Aphis craccivora was at least 75% each time. In the assay with Bemisia argentifolii, the mortality at 1 ppm stood at 100%. Further, the mortality at 10 ppm in the assay on Bemisia argentifolii, with Myzus persicae and with Aphis gossypii was at least 75% throughout. The mortality at 2500 ppm with Megoura viciae was at least 75%. In the assay on Aphis gossypii, the mortality at 3 ppm came to 90%. Besides, in the assay with Aphis craccivora, the mortality at 0.3 ppm turned out to be 100%.

For `Cc1c(C(=O)N(C)c2ccnnc2)cnn1C(C(F)(F)F)C(F)(F)F` [I-38, N,5-dimethyl-N-pyridazin-4-yl-1-[2,2,2-trifluoro-1-(trifluoromethyl)ethyl]pyrazole-4-carboxamide], the mortality at 10 ppm in the assay with Myzus persicae and with Aphis gossypii was at least 75% in each case. The mortality at 2500 ppm in the assay with Megoura viciae is at least 75%. Further, the mortality at 500 ppm with Aphis craccivora is at least 75%.

On to `CCN(C(=O)c1cnn(C(C)C(F)F)c1C)c1ccnnc1` (centres unmarked) [I-201], for which the mortality at 500 ppm in the assay on Dichromothrips corbetti and in the assay on Aphis craccivora was at least 75% each time. Also, the mortality at 1 ppm with Bemisia argentifolii was determined as 100%. For the same molecule, the mortality at 10 ppm with Bemisia argentifolii, in the assay on Myzus persicae and in the assay with Aphis gossypii was at least 75% in each case.

Consider `CCN(C(=O)c1cnn(C(C)C(C)C)c1C)c1ccnnc1` (centres unmarked) [I-98], for which, in the assay with Bemisia argentifolii, the mortality at 3 ppm is 75% and the mortality at 10 ppm was at least 75%. Moreover, in the assay with Myzus persicae, the mortality at 0.1 ppm is 95% and the mortality at 10 ppm is at least 75%. In addition, the mortality at 2500 ppm in the assay with Megoura viciae was at least 75%. Moreover, the “feeding damage (FD)” value in the assay with Plutella xylostella was found to be 25%. The mortality at 2500 ppm in the assay with Anthonomus grandis is at least 75%. In addition, in the assay on Aphis gossypii, the mortality at 0.1 ppm stood at 95% and the mortality at 10 ppm was at least 75%. Moreover, in the assay on Aphis craccivora, the mortality at 0.3 ppm worked out at 75% and the mortality at 500 ppm is at least 75%.

In the case of `CCN(C(=O)c1cnn(C(C)C)c1C)c1ccnnc1` [#5 of Table 98 in WO10/034737, reference compound], the mortality at 500 ppm in the assay on Dichromothrips corbetti came out at 0%. In addition, in the assay with Bemisia argentifolii, the mortality at 1 ppm stood at 0% and the mortality at 3 ppm stood at 0%. The “feeding damage (FD)” value in the assay on Plutella xylostella amounted to 100%.

Take `Cc1c(C(=O)Nc2ccnnc2)cnn1C(C)C` [#5 of Table 14 in WO10/034737, reference compound]: the mortality at 500 ppm in the assay on Nephotettix virescens is 0%. The mortality at 1 ppm in the assay with Bemisia argentifolii came out at 0%.

Take `Cc1c(C(=O)N(C)c2cccnc2)cnn1CC(F)(F)F` [#173 in WO09/027393, reference compound]: the mortality at 10 ppm came out at 25% in the assay with Bemisia argentifolii and 50% with Myzus persicae.

Take `Cc1c(C(=O)Nc2ccnnc2)cnn1C(C(F)(F)F)C(F)(F)F` [I-34, 5-methyl-1-(2,2,2-trifluoro-1-trifluoromethyl-ethyl)-1H-pyrazole-4-carboxylic acid pyridazin-4-ylamide]: in the assay on Myzus persicae, the mortality at 10 ppm was at least 75%. For the same molecule, in the assay with Megoura viciae, the mortality at 2500 ppm is at least 75%. Moreover, in the assay with Aphis craccivora, the mortality at 500 ppm is at least 75%.
